Assay results taken from PubChem BioAssay (NCI).
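Five concentrations, 48 hours, 96-well plates. GI50 is the concentration that inhibits growth by half. At the TGI there is no net growth.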

Assays:
Experiment in all cases: NCI-60 cell line screen, 48 h
[1] = tested on: OVCAR-8 ovarian
[2] = tested on: NCI-H460 lung
[3] = tested on: RPMI-8226 leukemia
[4] = tested on: SF-539 CNS
[5] = tested on: UACC-257 melanoma
[6] = tested on: SK-MEL-5 melanoma
[7] = tested on: MALME-3M melanoma
[8] = tested on: KM12 colon
[9] = tested on: MDA-MB-231 breast
[10] = tested on: MDA-MB-435

SMILES	TGI [1] [µM]	TGI [2] [µM]	TGI [3] [µM]	TGI [4] [µM]	TGI [5] [µM]	TGI [6] [µM]	TGI [7] [µM]	TGI [8] [µM]	GI50 [7] [µM]	GI50 [1] [µM]	GI50 [9] [µM]	TGI [9] [µM]	GI50 [2] [µM]	GI50 [10] [µM]	TGI [10] [µM]	GI50 [8] [µM]	GI50 [5] [µM]	GI50 [6] [µM]	GI50 [3] [µM]	GI50 [4] [µM]
CCOC(=O)NC(=O)c1cn(CCCOC(=O)CCCCCCCCC(=O)OCCCn2cc(C(=O)NC(=O)OCC)c(=O)[nH]c2=O)c(=O)[nH]c1=O	> 100	> 100	38.3	82.1	48.4	> 100														
O=C(O)c1ccc([N+](=O)[O-])c2c(=O)c3ccccc3[nH]c12	> 100	> 100	> 100	> 100	> 100	> 100	> 100	> 100												
Cc1cc(-c2nc3ccc(O)cc3s2)ccc1N	> 100	> 100			> 100	> 100	> 100	> 100	82.8	> 100	44.7	> 100	38.9	88.3	> 100	57.9	> 100	52.1		
COc1ccc(C=NC23CC4CC(CC(C4)C2)C3)cc1	> 100	> 100	> 100	> 100	> 100	> 100	> 100	> 100												
C=C(CN1CCN(c2ccccc2F)CC1)c1ccc(C(=O)Nc2ccccc2N)cc1	> 100	> 100	3.78	6.31	35.3	16.8	> 100	11.4	1.53	1.92	0.24	3.14	4.44			1.53	0.992	1.51	1.16	1.55
O=Cc1[nH]c2ccccc2c1Br	64.4			34.5	67.4	31.1	45.1	50												
Cc1cc2c(c(C#N)c1C)NC(=O)C(CC(=O)O)C2=O (stereo unspecified)	> 100	> 100	> 100	> 100	> 100	> 100	> 100	> 100												
c1cncc(CNc2ccccc2-c2nnc(Nc3ccc4c(c3)OCCO4)o2)c1	> 100	> 32.5	17.7	> 100	> 100	2.03	> 100	1.86	19.2	0.435	0.644	> 100	0.148			0.067	11.6	0.0721	0.28	0.115
Cc1cccc(C)c1NC(=O)C(=O)CC(=O)CO	> 100	> 100	> 100	> 100	> 100	> 100	> 100	> 100												
O=C(c1ccc(NCN2C(=O)CCC2=O)cc1)c1ccc(NCN2C(=O)CCC2=O)cc1	> 100	> 100	43.9	> 100	84.6	> 100	> 100	> 100												
O=C1NC2(O)c3ccccc3C(=O)C2(O)N1c1ccccc1 (stereo unspecified)	> 100	> 100	> 100	> 100	> 100		> 100	> 100												
Cc1ccc(C(=O)N/N=C/c2cccc(Oc3ccccc3)c2)cn1	> 100	> 100	8.58	> 59.1	> 100	> 100	> 100	> 100	9.14	15.8	22.9	> 100	4.05			3.69	> 56.3	5.21	2.66	10.6
O=C(Nc1ccc(Nc2ccncc2)cc1)c1ccc(Nc2ccnc3ccc([N+](=O)[O-])cc23)cc1	> 100	> 100	> 100	> 100	> 100	> 100		> 100		> 100	78.2	> 100	6.27	> 100	> 100	> 100	> 100	71.4	> 100	> 100
CC(=O)O[C@@H]1CC(C)C2CC2C2=C(C(O)OC2O)[C@@H]1C(C)CCC=C(C)C (stereo partly specified)	73	38.3	59.1	34.2	62.9	60.6	67													
COC1=C(C(=O)OC(C)(C)C)[C@]2(C)C(C(=O)OC(C)(C)C)C(OC)=C(C(=O)OC(C)(C)C)[C@]2(C)C1C(=O)OC(C)(C)C (stereo partly specified)	> 100	> 100	> 100	> 100	> 100	> 100	> 100	> 100												
Cc1cc(N/N=C/c2nc(-c3ccccc3)oc2C)c2cc(Cl)ccc2n1	4.4	3.61		3.17	4.9	3.2	3.51		1.94	2.04	1.85	3.69	1.88	1.78	3.26		2.01	1.76		1.7
N#CC(C#N)=CN1CCN(C(=O)c2ccccc2)C1=S	> 100	66.5	> 100		81.9	50.1	64.1	86.7	10.2	77	36.1	> 100	20	38.8	> 100	32.3	25.3	23.3	35.3	
O[C@]12CCCC[C@H]1CCC2	> 100	> 100	> 100	> 100	> 100	> 100	> 100	> 100												
CC(=S)NNC(=O)c1ccncc1	> 100	> 100		> 100	> 100	> 100	> 100	> 100												
